Test results as given in patent publication US10968222B2, “2-azabicyclo hexane JAK inhibitor compound” (THERAVANCE BIOPHARMA R&D IP, LLC, priority 2018, dated 2021).

Legend:
[1] = system: IL-2/anti-CD3 stimulated IFNγ in human PBMCs; assay: Inhibition of IL-2/anti-CD3 stimulated IFNγ in human PBMCs; type: cell-based; conditions: PBMC, 24 h stimulation, ELISA, read-out: pIC50, inhibition of IL-2/anti-CD3 stimulated IFNγ (converted)
Protocol: The potency of the test compound for inhibition of interleukin-2 (IL-2)/anti-CD3 stimulated interferon gamma (IFNγ) was measured in human peripheral blood mononuclear cells (PBMCs) isolated from human whole blood (Stanford Blood Center). Because IL-2 signals through JAK, this assay provides a measure of JAK cellular potency.
(1) Human peripheral blood mononuclear cells (PBMC) were isolated from human whole blood of healthy donors using a ficoll gradient. Cells were cultured in a 37° C., 5% CO2 humidified incubator in RPMI (Life Technologies) supplemented with 10% Heat Inactivated Fetal Bovine Serum (FBS, Life Technologies), 2 mM Glutamax (Life Technologies), 25 mM HEPES (Life Technologies) and 1× Pen/Strep (Life Technologies). Cells were seeded at 200,000 cells/well in media (50 μL) and cultured for 1 h. The compound was serially diluted in DMSO and then diluted another 500-fold (to a 2× final assay concentration) in media. […]
(2) After cytokine stimulation, cells were centrifuged at 500 g for 5 min and supernatants removed and frozen at −80° C. To determine the inhibitory potency of test compounds in response to IL-2/anti-CD3, supernatant IFNγ concentrations were measured via ELISA (R&D Systems). IC50 values were determined from analysis of the inhibition curves of concentration of IFNγ vs compound concentration. Data are expressed as pIC50 (negative decadic logarithm IC50) values.

CSNK1D = biological target: T1, CSNK1D (Homo sapiens, UniProt P48730); assay: Kinome screen, CSNK1D; type: binding; conditions: screened at 1 μM
T1 construct: made in house; host or cells: E. coli BL21-derived host (T7 phage) or HEK-293 cells
T1 sequence (P48730 whole entry): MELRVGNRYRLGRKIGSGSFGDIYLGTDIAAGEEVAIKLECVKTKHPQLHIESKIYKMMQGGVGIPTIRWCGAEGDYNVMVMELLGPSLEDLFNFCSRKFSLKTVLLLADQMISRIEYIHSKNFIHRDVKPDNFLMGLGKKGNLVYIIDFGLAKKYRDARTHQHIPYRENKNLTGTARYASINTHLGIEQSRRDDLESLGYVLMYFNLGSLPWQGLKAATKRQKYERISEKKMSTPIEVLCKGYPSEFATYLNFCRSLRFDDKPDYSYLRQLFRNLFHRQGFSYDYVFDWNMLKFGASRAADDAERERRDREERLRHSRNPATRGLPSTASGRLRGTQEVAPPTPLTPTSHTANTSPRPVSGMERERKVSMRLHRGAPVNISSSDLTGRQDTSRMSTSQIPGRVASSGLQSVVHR
Protocol: (§1) Compounds 1 and C-1 were screened against other kinases to evaluate their selectivity profile.
(§2) Kinase-tagged T7 phage strains were grown in parallel in 24-well blocks in an E. coli host derived from the BL21 strain. E. coli were grown to log-phase and infected with T7 phage from a frozen stock (multiplicity of infection=0.4) and incubated with shaking at 32° C. until lysis (90-150 minutes). The lysates were centrifuged (6,000×g) and filtered (0.2 μm) to remove cell debris. The remaining kinases were produced in HEK-293 cells and subsequently tagged with DNA for qPCR detection.
(§3) Streptavidin-coated magnetic beads were treated with biotinylated small molecule ligands for 30 minutes at room temperature to generate affinity resins for kinase assays. The liganded beads were blocked with excess biotin and washed with blocking buffer (SeaBlock (Pierce), 1% BSA, 0.05% Tween 20, 1 mM DTT) to remove unbound ligand and to reduce non-specific phage binding. Binding reactions were assembled by combining kinases, liganded affinity beads, and test compounds in 1× binding buffer (20% SeaBlock, 0.17×PBS, 0.05% Tween 20, 6 mM DTT). Test compounds were prepared as 40× stocks in 100% DMSO and directly diluted into the assay. All reactions were performed in polypropylene 384-well plates in a final volume of 0.04 ml. […] The kinase concentration in the eluates was measured by qPCR. […]

CDK7 = biological target: T2, CDK7 (Homo sapiens, UniProt P50613); assay: Kinome screen, CDK7; type: binding; conditions: screened at 1 μM
T2 construct: made in house; host or cells: E. coli BL21-derived host (T7 phage) or HEK-293 cells
T2 sequence (P50613 whole entry): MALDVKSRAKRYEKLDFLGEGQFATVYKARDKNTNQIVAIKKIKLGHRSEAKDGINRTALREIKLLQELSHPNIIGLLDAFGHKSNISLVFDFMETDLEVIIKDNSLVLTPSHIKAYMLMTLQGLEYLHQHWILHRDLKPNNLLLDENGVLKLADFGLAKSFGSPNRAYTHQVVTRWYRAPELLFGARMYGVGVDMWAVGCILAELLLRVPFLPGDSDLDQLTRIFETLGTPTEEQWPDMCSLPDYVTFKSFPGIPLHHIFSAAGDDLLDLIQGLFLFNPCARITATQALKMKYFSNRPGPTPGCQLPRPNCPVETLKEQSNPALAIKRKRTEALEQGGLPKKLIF
Protocol: as §1, §2, §3

[2] = system: IL-6 stimulated CCL2 (MCP-1) production in human PBMCs; assay: Inhibition of IL-6 stimulated CCL2 (MCP-1) in human PBMCs; type: cell-based; conditions: PBMC, 48 h stimulation, ELISA, read-out: pIC50, inhibition of IL-6 stimulated CCL2 (MCP-1) (converted)
Protocol: The potency of the test compound for inhibition of interleukin-6 (IL-6) stimulated CCL2 (MCP-1) production was measured in human peripheral blood mononuclear cells (PBMCs) isolated from human whole blood (Stanford Blood Center). Because IL-6 signals through JAK, this assay provides a distal measure of JAK cellular potency.
(1) The protocol of Assay 4 paragraph (1) was followed up to the incubation with test compounds. In the present assay, after test compounds were added to wells and incubated, IL-6 (R&D Systems; final concentration 10 ng/ml) in pre-warmed assay media (50 μL) was added.
(2) After cytokine stimulation for 48 h, cells were centrifuged at 500 g for 5 min and supernatants were removed and frozen at −80° C. To determine the inhibitory potency of the test compound in response to IL-6, supernatant CCL2 (MCP-1) concentrations were measured via ELISA (R&D Systems). IC50 values were determined from analysis of the inhibition curves of concentration of CCL2/MCP-1 vs compound concentration. Data are expressed as pIC50 (negative decadic logarithm IC50) values.

KIT = biological target: T3, KIT (Homo sapiens, UniProt P10721); assay: Kinome screen, KIT; type: binding; conditions: screened at 1 μM
T3 construct: made in house; host or cells: E. coli BL21-derived host (T7 phage) or HEK-293 cells
T3 sequence (P10721 26-976): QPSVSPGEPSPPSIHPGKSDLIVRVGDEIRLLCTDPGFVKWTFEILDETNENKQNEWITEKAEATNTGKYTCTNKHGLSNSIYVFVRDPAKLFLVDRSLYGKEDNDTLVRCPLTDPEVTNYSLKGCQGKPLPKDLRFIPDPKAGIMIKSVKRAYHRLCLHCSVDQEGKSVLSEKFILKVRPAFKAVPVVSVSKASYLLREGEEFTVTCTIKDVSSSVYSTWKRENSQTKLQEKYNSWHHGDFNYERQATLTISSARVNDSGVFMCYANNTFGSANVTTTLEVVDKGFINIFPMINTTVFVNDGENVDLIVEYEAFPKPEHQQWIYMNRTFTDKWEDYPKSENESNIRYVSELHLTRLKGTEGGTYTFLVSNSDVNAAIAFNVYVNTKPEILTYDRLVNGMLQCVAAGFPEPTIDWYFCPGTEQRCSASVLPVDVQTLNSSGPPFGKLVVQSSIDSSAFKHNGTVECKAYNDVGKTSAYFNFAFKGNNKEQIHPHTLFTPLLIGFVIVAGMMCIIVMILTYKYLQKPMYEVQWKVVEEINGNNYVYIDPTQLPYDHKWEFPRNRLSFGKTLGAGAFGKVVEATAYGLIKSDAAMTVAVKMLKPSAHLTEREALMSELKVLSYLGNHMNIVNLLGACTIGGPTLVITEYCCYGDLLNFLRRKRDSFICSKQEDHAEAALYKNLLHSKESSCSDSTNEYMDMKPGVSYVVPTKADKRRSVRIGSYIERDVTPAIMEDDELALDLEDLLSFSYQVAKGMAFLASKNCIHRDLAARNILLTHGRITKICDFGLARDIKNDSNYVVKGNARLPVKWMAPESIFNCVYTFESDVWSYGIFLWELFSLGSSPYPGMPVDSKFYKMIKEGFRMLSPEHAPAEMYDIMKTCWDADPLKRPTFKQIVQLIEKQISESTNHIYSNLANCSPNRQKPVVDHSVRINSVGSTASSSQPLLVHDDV
Protocol: as §1, §2, §3

PAK4 = biological target: T4, PAK4 (Homo sapiens, UniProt O96013); assay: Kinome screen, PAK4; type: binding; conditions: screened at 1 μM
T4 construct: made in house; host or cells: E. coli BL21-derived host (T7 phage) or HEK-293 cells
T4 sequence (O96013 whole entry): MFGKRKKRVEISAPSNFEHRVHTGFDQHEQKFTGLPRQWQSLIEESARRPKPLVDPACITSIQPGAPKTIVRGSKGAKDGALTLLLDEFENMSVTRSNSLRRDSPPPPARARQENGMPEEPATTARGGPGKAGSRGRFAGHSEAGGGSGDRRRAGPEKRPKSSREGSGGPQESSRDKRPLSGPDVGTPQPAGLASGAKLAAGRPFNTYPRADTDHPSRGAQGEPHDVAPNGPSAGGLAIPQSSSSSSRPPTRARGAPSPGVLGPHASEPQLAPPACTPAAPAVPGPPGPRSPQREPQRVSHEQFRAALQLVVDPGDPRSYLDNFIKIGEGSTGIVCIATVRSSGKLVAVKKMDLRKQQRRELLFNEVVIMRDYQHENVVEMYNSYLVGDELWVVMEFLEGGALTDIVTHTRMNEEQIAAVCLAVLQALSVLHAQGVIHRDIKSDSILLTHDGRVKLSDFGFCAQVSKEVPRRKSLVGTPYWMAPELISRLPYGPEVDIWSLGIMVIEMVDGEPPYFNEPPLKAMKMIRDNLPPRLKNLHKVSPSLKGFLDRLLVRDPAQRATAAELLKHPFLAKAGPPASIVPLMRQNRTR
Protocol: as §1, §2, §3

[3] = Lung and plasma pharmacokinetics in mice; type: in vivo, mouse; conditions: BALB/c mice
Protocol: Plasma and lung concentrations of compound 1 and ratios thereof were determined in the following manner. BALB/c mice from Charles River Laboratories were used in the assay. Compound 1 was formulated in 20% propylene glycol in citrate buffer (pH 4) at a concentration of 0.324 mg/mL as a solution. 50 μL of the solution formulation was introduced into the trachea of a mouse by oral aspiration. At various time points (0.167, 2, 6 hr) post dosing, blood samples were removed via cardiac puncture and intact lungs were excised from the mice. Blood samples were centrifuged (Eppendorf centrifuge, 5804R) for 4 minutes at approximately 12,000 rpm at 4° C. to collect plasma. Lungs were padded dry, weighed, and homogenized in 0.6 mL sterile water. Plasma and lung concentrations of compound 1 were determined by LC-MS analysis against analytical standards constructed into a standard curve in the test matrix. […] The lung-to-plasma ratio was determined as the ratio of the lung AUC in μg hr/g to the plasma AUC in μg hr/mL (where AUC is conventionally defined as the area under the curve of test compound concentration vs. time).

CCc1cc(O)c(F)cc1-c1cc(F)c2c(-c3nc4c([nH]3)CCN(C(=O)[C@]35C[C@H]3CCN5)C4)n[nH]c2c1 [Compound 1, (1S,5R)-2-azabicyclo[3.1.0]hexan-1-yl(2-(6-(2-ethyl-5-fluoro-4-hydroxyphenyl)-4-fluoro-1H-indazol-3-yl)-6,7-dihydro-3H-imidazo[4,5-c]pyridin-5(4H)-yl)methanone]
IC50 [1]: 200 nM
inhibition at 1 µM (CSNK1D): 25%
inhibition at 1 µM (CDK7): 82%
IC50 [2]: 316 nM
inhibition at 1 µM (KIT): 83%
inhibition at 1 µM (PAK4): 41%
lung AUC (0-6 hr) ([3]; oral aspiration of 50 μL of 0.324 mg/mL solution): 43.5 µg·h/g
Kp ([3]; mouse, 16.2 µg/mouse, oral aspiration, lung AUC in μg hr/g to plasma AUC in μg hr/mL, read-out: lung-to-plasma AUC ratio): 59.6
